Measurements taken from ChEMBL document CHEMBL3286225, “Novel carboline derivatives as potent antifungal lead compounds: design, synthesis, and biological evaluation” (ACS Med Chem Lett, 2014).
Converted amounts (≈) assume the structure as drawn.

Key:
Type in all cases: functional
Candida tropicalis = test: Antifungal activity against Candida tropicalis after 7 days by serial dilution method; settings: 168 h
Pichia kudriavzevii = test: Antifungal activity against Candida krusei 0710397 after 7 days by serial dilution method; settings: Pichia kudriavzevii, 0710397, 168 h
Candida albicans = test: Antifungal activity against fluconazole-sensitive Candida albicans SC5314 after 24 hrs by serial dilution method; settings: SC5314, 24 h
Candida parapsilosis = test: Antifungal activity against Candida parapsilosis ATCC 22019 after 24 hrs by serial dilution method; settings: Lodderomyces parapsilosis, ATCC 22019, 24 h
Cryptococcus neoformans = test: Antifungal activity against Cryptococcus neoformans 32609 after 72 hrs by serial dilution method; settings: Cryptococcus neoformans, 32609, 72 h
Trichophyton rubrum = test: Antifungal activity against Trichophyton rubrum Cmccftla after 7 days by serial dilution method; settings: 168 h
Nannizzia gypsea = test: Antifungal activity against Microsporum gypseum Cmccfmza after 7 days by serial dilution method; settings: 168 h
Nakaseomyces glabratus = test: Antifungal activity against Candida glabrata 537 after 24 hrs by serial dilution method; settings: Nakaseomyces glabratus, 537, 24 h
Aspergillus fumigatus = test: Antifungal activity against Aspergillus fumigatus 07544 after 7 days by serial dilution method; settings: Aspergillus fumigatus, 07544, 168 h

## Fc1ccc(NCCCn2c3c(c4cc(F)ccc42)CNCC3)cc1
Candida tropicalis
  MIC80: 64 µg/mL (≈ 187 µM)
Pichia kudriavzevii
  MIC80: 16 µg/mL (≈ 46.9 µM)
Candida albicans
  MIC80: 8 µg/mL (≈ 23.4 µM)
Candida parapsilosis
  MIC80: 16 µg/mL (≈ 46.9 µM)
Cryptococcus neoformans
  MIC80: 32 µg/mL (≈ 93.7 µM)
Trichophyton rubrum
  MIC80: 32 µg/mL (≈ 93.7 µM)
Nannizzia gypsea
  MIC80: 16 µg/mL (≈ 46.9 µM)

## CN1CCc2c(c3cc(Cl)ccc3n2CC(O)c2ccccc2)C1 (stereo not given)
Candida albicans
  MIC80: > 64 µg/mL
Candida parapsilosis
  MIC80: 64 µg/mL (≈ 188 µM)
Cryptococcus neoformans
  MIC80: 32 µg/mL (≈ 93.9 µM)
Nakaseomyces glabratus
  MIC80: 32 µg/mL (≈ 93.9 µM)
Aspergillus fumigatus
  MIC80: > 64 µg/mL
Trichophyton rubrum
  MIC80: > 64 µg/mL
Nannizzia gypsea
  MIC80: 32 µg/mL (≈ 93.9 µM)

## CCN1CCc2c(c3cc(Cl)ccc3n2CCCOc2ccc(Cl)cc2)C1
Candida albicans
  MIC80: 64 µg/mL (≈ 159 µM)
Candida parapsilosis
  MIC80: 64 µg/mL (≈ 159 µM)
Cryptococcus neoformans
  MIC80: 16 µg/mL (≈ 39.7 µM)
Nakaseomyces glabratus
  MIC80: 32 µg/mL (≈ 79.3 µM)
Aspergillus fumigatus
  MIC80: > 64 µg/mL
Trichophyton rubrum
  MIC80: > 64 µg/mL
Nannizzia gypsea
  MIC80: 32 µg/mL (≈ 79.3 µM)

## CN1CCc2c(c3cc(Cl)ccc3n2Cc2ccccc2)C1
Candida albicans
  MIC80: 64 µg/mL (≈ 206 µM)
Candida parapsilosis
  MIC80: 64 µg/mL (≈ 206 µM)
Cryptococcus neoformans
  MIC80: 32 µg/mL (≈ 103 µM)
Nakaseomyces glabratus
  MIC80: 32 µg/mL (≈ 103 µM)
Aspergillus fumigatus
  MIC80: 64 µg/mL (≈ 206 µM)
Trichophyton rubrum
  MIC80: 16 µg/mL (≈ 51.5 µM)
Nannizzia gypsea
  MIC80: 16 µg/mL (≈ 51.5 µM)

## CN1CCc2c(c3cc(Cl)ccc3n2CC#N)C1
Candida albicans
  MIC80: > 64 µg/mL
Candida parapsilosis
  MIC80: > 64 µg/mL
Cryptococcus neoformans
  MIC80: 64 µg/mL (≈ 246 µM)
Nakaseomyces glabratus
  MIC80: > 64 µg/mL
Aspergillus fumigatus
  MIC80: > 64 µg/mL
Trichophyton rubrum
  MIC80: > 64 µg/mL
Nannizzia gypsea
  MIC80: 64 µg/mL (≈ 246 µM)

## Fc1ccc(OCCCCn2c3c(c4cc(F)ccc42)CNCC3)cc1
Candida tropicalis
  MIC80: 16 µg/mL (≈ 44.9 µM)
Pichia kudriavzevii
  MIC80: 4 µg/mL (≈ 11.2 µM)
Candida albicans
  MIC80: 16 µg/mL (≈ 44.9 µM)
Candida parapsilosis
  MIC80: 16 µg/mL (≈ 44.9 µM)
Cryptococcus neoformans
  MIC80: 16 µg/mL (≈ 44.9 µM)
Trichophyton rubrum
  MIC80: 16 µg/mL (≈ 44.9 µM)
Nannizzia gypsea
  MIC80: 8 µg/mL (≈ 22.4 µM)

## Fc1ccc2c(c1)c1c(n2CCCOc2ccc(Br)cc2)CCNC1
Candida tropicalis
  MIC80: 16 µg/mL (≈ 39.7 µM)
Pichia kudriavzevii
  MIC80: 4 µg/mL (≈ 9.92 µM)
Candida albicans
  MIC80: 8 µg/mL (≈ 19.8 µM)
Candida parapsilosis
  MIC80: 64 µg/mL (≈ 159 µM)
Cryptococcus neoformans
  MIC80: 4 µg/mL (≈ 9.92 µM)
Trichophyton rubrum
  MIC80: 8 µg/mL (≈ 19.8 µM)
Nannizzia gypsea
  MIC80: 2 µg/mL (≈ 4.96 µM)

## Fc1ccc(OCCCn2c3c(c4cc(Br)ccc42)CNCC3)cc1
Candida tropicalis
  MIC80: 16 µg/mL (≈ 39.7 µM)
Pichia kudriavzevii
  MIC80: 4 µg/mL (≈ 9.92 µM)
Candida albicans
  MIC80: 4 µg/mL (≈ 9.92 µM)
Candida parapsilosis
  MIC80: 4 µg/mL (≈ 9.92 µM)
Cryptococcus neoformans
  MIC80: 4 µg/mL (≈ 9.92 µM)
Trichophyton rubrum
  MIC80: 8 µg/mL (≈ 19.8 µM)
Nannizzia gypsea
  MIC80: 4 µg/mL (≈ 9.92 µM)

## CN1CCc2c(c3cc(Cl)ccc3n2C(=O)Cc2ccccc2)C1
Candida albicans
  MIC80: > 64 µg/mL
Candida parapsilosis
  MIC80: > 64 µg/mL
Cryptococcus neoformans
  MIC80: > 64 µg/mL
Nakaseomyces glabratus
  MIC80: > 64 µg/mL
Aspergillus fumigatus
  MIC80: > 64 µg/mL
Trichophyton rubrum
  MIC80: > 64 µg/mL
Nannizzia gypsea
  MIC80: > 64 µg/mL

## Cc1ccc(OCCCn2c3c(c4cc(F)ccc42)CNCC3)cc1
Candida tropicalis
  MIC80: 16 µg/mL (≈ 47.3 µM)
Pichia kudriavzevii
  MIC80: 4 µg/mL (≈ 11.8 µM)
Candida albicans
  MIC80: 8 µg/mL (≈ 23.6 µM)
Candida parapsilosis
  MIC80: 4 µg/mL (≈ 11.8 µM)
Cryptococcus neoformans
  MIC80: 4 µg/mL (≈ 11.8 µM)
Trichophyton rubrum
  MIC80: 2 µg/mL (≈ 5.91 µM)
Nannizzia gypsea
  MIC80: 4 µg/mL (≈ 11.8 µM)

## Fc1ccc2c(c1)c1c(n2CCCOc2cccc(Br)c2)CCNC1
Candida tropicalis
  MIC80: 16 µg/mL (≈ 39.7 µM)
Pichia kudriavzevii
  MIC80: 4 µg/mL (≈ 9.92 µM)
Candida albicans
  MIC80: 2 µg/mL (≈ 4.96 µM)
Candida parapsilosis
  MIC80: 4 µg/mL (≈ 9.92 µM)
Cryptococcus neoformans
  MIC80: 4 µg/mL (≈ 9.92 µM)
Trichophyton rubrum
  MIC80: 4 µg/mL (≈ 9.92 µM)
Nannizzia gypsea
  MIC80: 2 µg/mL (≈ 4.96 µM)

## Clc1ccc2c(c1)c1c(n2CCCOc2cccc(Br)c2)CCNC1
Candida tropicalis
  MIC80: 16 µg/mL (≈ 38.1 µM)
Pichia kudriavzevii
  MIC80: 4 µg/mL (≈ 9.53 µM)
Candida albicans
  MIC80: 8 µg/mL (≈ 19.1 µM)
Candida parapsilosis
  MIC80: 16 µg/mL (≈ 38.1 µM)
Cryptococcus neoformans
  MIC80: 4 µg/mL (≈ 9.53 µM)
Trichophyton rubrum
  MIC80: 16 µg/mL (≈ 38.1 µM)
Nannizzia gypsea
  MIC80: 16 µg/mL (≈ 38.1 µM)

## Fc1ccc2c(c1)c1c(n2CCCOc2ccccc2Cl)CCNC1
Candida tropicalis
  MIC80: 64 µg/mL (≈ 178 µM)
Pichia kudriavzevii
  MIC80: 64 µg/mL (≈ 178 µM)
Candida albicans
  MIC80: 32 µg/mL (≈ 89.2 µM)
Candida parapsilosis
  MIC80: 64 µg/mL (≈ 178 µM)
Cryptococcus neoformans
  MIC80: 16 µg/mL (≈ 44.6 µM)
Trichophyton rubrum
  MIC80: 32 µg/mL (≈ 89.2 µM)
Nannizzia gypsea
  MIC80: 16 µg/mL (≈ 44.6 µM)

## COc1ccc2c(c1)c1c(n2CCCOc2ccc(Cl)cc2)CCN(C)C1
Candida albicans
  MIC80: 32 µg/mL (≈ 83.1 µM)
Candida parapsilosis
  MIC80: 32 µg/mL (≈ 83.1 µM)
Cryptococcus neoformans
  MIC80: 8 µg/mL (≈ 20.8 µM)
Nakaseomyces glabratus
  MIC80: > 64 µg/mL
Aspergillus fumigatus
  MIC80: 32 µg/mL (≈ 83.1 µM)
Trichophyton rubrum
  MIC80: 8 µg/mL (≈ 20.8 µM)
Nannizzia gypsea
  MIC80: 8 µg/mL (≈ 20.8 µM)

## C#CCn1c2c(c3cc(Cl)ccc31)CN(C)CC2
Candida albicans
  MIC80: > 64 µg/mL
Candida parapsilosis
  MIC80: 64 µg/mL (≈ 247 µM)
Cryptococcus neoformans
  MIC80: 32 µg/mL (≈ 124 µM)
Nakaseomyces glabratus
  MIC80: 64 µg/mL (≈ 247 µM)
Aspergillus fumigatus
  MIC80: > 64 µg/mL
Trichophyton rubrum
  MIC80: > 64 µg/mL
Nannizzia gypsea
  MIC80: 32 µg/mL (≈ 124 µM)

## CC(C)(C)c1ccc(OCCCn2c3c(c4cc(F)ccc42)CNCC3)cc1
Candida tropicalis
  MIC80: 4 µg/mL (≈ 10.5 µM)
Pichia kudriavzevii
  MIC80: 16 µg/mL (≈ 42 µM)
Candida albicans
  MIC80: 8 µg/mL (≈ 21 µM)
Candida parapsilosis
  MIC80: 4 µg/mL (≈ 10.5 µM)
Cryptococcus neoformans
  MIC80: 8 µg/mL (≈ 21 µM)
Trichophyton rubrum
  MIC80: 4 µg/mL (≈ 10.5 µM)
Nannizzia gypsea
  MIC80: 4 µg/mL (≈ 10.5 µM)

## Fc1ccc(OCCCn2c3c(c4cc(F)ccc42)CNCC3)cc1
Candida tropicalis
  MIC80: 16 µg/mL (≈ 46.7 µM)
Pichia kudriavzevii
  MIC80: 4 µg/mL (≈ 11.7 µM)
Candida albicans
  MIC80: 8 µg/mL (≈ 23.4 µM)
Candida parapsilosis
  MIC80: 16 µg/mL (≈ 46.7 µM)
Cryptococcus neoformans
  MIC80: 8 µg/mL (≈ 23.4 µM)
Trichophyton rubrum
  MIC80: 8 µg/mL (≈ 23.4 µM)
Nannizzia gypsea
  MIC80: 8 µg/mL (≈ 23.4 µM)

## Cc1ccc2c3c(n(CCCOc4ccc(Cl)cc4)c2c1)CCN(C)C3
Candida albicans
  MIC80: 32 µg/mL (≈ 86.7 µM)
Candida parapsilosis
  MIC80: 16 µg/mL (≈ 43.4 µM)
Cryptococcus neoformans
  MIC80: 8 µg/mL (≈ 21.7 µM)
Nakaseomyces glabratus
  MIC80: 16 µg/mL (≈ 43.4 µM)
Aspergillus fumigatus
  MIC80: 16 µg/mL (≈ 43.4 µM)
Trichophyton rubrum
  MIC80: 8 µg/mL (≈ 21.7 µM)
Nannizzia gypsea
  MIC80: 8 µg/mL (≈ 21.7 µM)

## Cc1ccc2c(c1)c1c(n2CCCOc2cccc(Br)c2)CCNC1
Candida tropicalis
  MIC80: 16 µg/mL (≈ 40.1 µM)
Pichia kudriavzevii
  MIC80: 4 µg/mL (≈ 10 µM)
Candida albicans
  MIC80: 16 µg/mL (≈ 40.1 µM)
Candida parapsilosis
  MIC80: 16 µg/mL (≈ 40.1 µM)
Cryptococcus neoformans
  MIC80: 16 µg/mL (≈ 40.1 µM)
Trichophyton rubrum
  MIC80: 16 µg/mL (≈ 40.1 µM)
Nannizzia gypsea
  MIC80: 16 µg/mL (≈ 40.1 µM)

## Cc1ccccc1OCCCn1c2c(c3cc(F)ccc31)CNCC2
Candida tropicalis
  MIC80: 64 µg/mL (≈ 189 µM)
Pichia kudriavzevii
  MIC80: 16 µg/mL (≈ 47.3 µM)
Candida albicans
  MIC80: 4 µg/mL (≈ 11.8 µM)
Candida parapsilosis
  MIC80: 16 µg/mL (≈ 47.3 µM)
Cryptococcus neoformans
  MIC80: 4 µg/mL (≈ 11.8 µM)
Trichophyton rubrum
  MIC80: 4 µg/mL (≈ 11.8 µM)
Nannizzia gypsea
  MIC80: 4 µg/mL (≈ 11.8 µM)
